Results: patent US8097623B2, “Indoles useful in the treatment of inflammation” (Biolipox AB, priority 2005, dated 2012)

Biological target: T1, mPGES-1 (Homo sapiens, UniProt O14684)
T1 construct: made in house; host or cells: E. coli
T1 sequence (O14684 1-152): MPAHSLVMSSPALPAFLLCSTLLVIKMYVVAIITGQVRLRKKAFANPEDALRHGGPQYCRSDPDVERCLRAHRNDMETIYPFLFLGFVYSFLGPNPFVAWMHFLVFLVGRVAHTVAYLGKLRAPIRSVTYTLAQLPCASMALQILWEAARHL
Assay: mPGES-1 biological test: conversion of PGH2 to PGE2, PGE2 quantified by HPLC
Type: biochemical
Details: mPGES-1 expressed in E. coli, membrane fraction; 25 min preincubation with inhibitor, 60 s with PGH2, room temperature; read-out: IC50 (inhibition of mPGES-1)
Description: In the assay mPGES-1 catalyses the reaction where the substrate PGH2 is converted to PGE2. mPGES-1 is expressed in E. coli and the membrane fraction is dissolved in 20 mM NaPi-buffer pH 8.0 and stored at −80° C. In the assay mPGES-1 is dissolved in 0.1M KPi-buffer pH 7.35 with 2.5 mM glutathione. The stop solution consists of H2O/MeCN (7/3), containing FeCl2 (25 mM) and HCl (0.15 M). The assay is performed at room temperature in 96-well plates. Analysis of the amount of PGE2 is performed with reversed phase HPLC (Waters 2795 equipped with a 3.9×150 mm C18 column). The mobile phase consists of H2O/MeCN (7/3), containing TFA (0.056%), and absorbance is measured at 195 nm with a Waters 2487 UV-detector.
The following is added chronologically to each well: • 1. 100 μL mPGES-1 in KPi-buffer with glutathione. Total protein concentration: 0.02 mg/mL. • 2. 1 μL inhibitor in DMSO. Incubation of the plate at room temperature for 25 minutes. • 3. 4 μL of a 0.25 mM PGH2 solution. Incubation of the plate at room temperature for 60 seconds. • 4. […] stop solution. • 180 μL per sample is analyzed with HPLC.

SMILES | IC50
CC(C)Oc1ccc(-n2c(C(=O)O)c(CCC(=O)O)c3cc(-c4ccc(C(F)(F)F)cn4)ccc32)cc1 [Example 88, 3-(2-Carboxyethyl)-1-(4-isopropoxyphenyl)-5-(5-trifluoromethylpyridin-2-yl)indole-2-carboxylic acid] | 5.4 µM
CC(C)Oc1ccc(-n2c(C(=O)O)c(CN3CCCC3C(=O)O)c3cc(-c4ccc(C(C)(C)C)cc4)ccc32)cc1 (centres unmarked) [Example 87, 1-[5-(4-tert-Butylphenyl)-2-carboxy-1-(4-isopropoxyphenyl)indol-3-ylmethyl]-2-carboxypyrrolidinium chloride] | 2.3 µM
CC(=O)NC(Cc1c(C(=O)O)n(-c2ccc(OC3CCCC3)cc2)c2ccc(-c3ccc(C(F)(F)F)cc3)cc12)C(=O)O (centres unmarked) [Example 85, 3-(2-Acetylamino-2-carboxyethyl)-1-(4-cyclopentyloxyphenyl)-5-(4-trifluoromethylphenyl)indole-2-carboxylic acid] | 6.9 µM
CC(C)Oc1ccc(-n2c(C(=O)O)c(C(=O)O)c3cc(Oc4ccc(C(F)(F)F)cn4)ccc32)cc1 [Example 19, 1-(4-Isopropoxyphenyl)-5-(5-trifluoromethylpyridin-2-yloxy)indole-2,3-dicarboxylic acid] | 4.3 µM
CCOC(=O)c1c(C(=O)O)c2cc(-c3ccc(C(F)(F)F)cc3)ccc2n1-c1ccc(OC2CCCC2)cc1 [Example 67, 1-(4-Cyclopentyloxyphenyl)-5-(4-trifluoromethylphenyl)indole-2,3-dicarboxylic acid 2-ethyl ester] | 1.9 µM
